From patent US10829473B2, “Modulators of the cystic fibrosis transmembrane conductance regulator protein and methods of use” (AbbVie Overseas S.Á.R.L., priority 2017, dated 2020) come the findings set out here.

This experiment deals with T1, F508delCFTR (Homo sapiens, UniProt P13569, DEL508-508).
T1 construct: expressed in transfected cells; host or cells: CFBE41o- human lung derived epithelial cells (CFBE41o-F508delCFTR-HRP), doxycycline-inducible
Briefly: Cell Surface Expression-Horse Radish Peroxidase (CSE-HRP) Assay.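 As to EC50 (with co-corrector): co-corrector chromenyl benzoic acid corrector at 2 or 3 µM.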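 As to Maximum % activity (without co-corrector): % of on-plate positive control chromenyl benzoic acid corrector at 2 or 3 µM.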 The format is cell-based. Particulars: for Maximum % activity (with co-corrector) / Emax: maximum at any tested concentration; for Emax: read-out: Maximum % activity (without co-corrector). Put shortly: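 Corrector compounds were given as 8-point 3-fold series from 20 or 30 μM, with or without a 2 μM co-corrector, for 18-24 h at 33 °C. Surface HRP was read by luminol luminescence as % of positive control; variable-Hill-slope sigmoidal fitting gave EC50 from triplicate plates.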

[1] abbreviates: test compound alone, without co-corrector, read-out: EC50 (without co-corrector).
Where [2] appears, read: with co-corrector, read-out: EC50 (with co-corrector).
[3] abbreviates: test compound with co-corrector.
Setting [4] is: test compound with co-corrector, read-out: EC50 (with co-corrector).
The mark [5] stands for this setting: test compound without co-corrector.
The mark [6] stands for this setting: test compound without co-corrector, read-out: EC50 (without co-corrector).

Read-outs that look alike come from different tables or passages of the source.

T1 sequence (P13569 with tags, fused parts or gaps DEL508-508): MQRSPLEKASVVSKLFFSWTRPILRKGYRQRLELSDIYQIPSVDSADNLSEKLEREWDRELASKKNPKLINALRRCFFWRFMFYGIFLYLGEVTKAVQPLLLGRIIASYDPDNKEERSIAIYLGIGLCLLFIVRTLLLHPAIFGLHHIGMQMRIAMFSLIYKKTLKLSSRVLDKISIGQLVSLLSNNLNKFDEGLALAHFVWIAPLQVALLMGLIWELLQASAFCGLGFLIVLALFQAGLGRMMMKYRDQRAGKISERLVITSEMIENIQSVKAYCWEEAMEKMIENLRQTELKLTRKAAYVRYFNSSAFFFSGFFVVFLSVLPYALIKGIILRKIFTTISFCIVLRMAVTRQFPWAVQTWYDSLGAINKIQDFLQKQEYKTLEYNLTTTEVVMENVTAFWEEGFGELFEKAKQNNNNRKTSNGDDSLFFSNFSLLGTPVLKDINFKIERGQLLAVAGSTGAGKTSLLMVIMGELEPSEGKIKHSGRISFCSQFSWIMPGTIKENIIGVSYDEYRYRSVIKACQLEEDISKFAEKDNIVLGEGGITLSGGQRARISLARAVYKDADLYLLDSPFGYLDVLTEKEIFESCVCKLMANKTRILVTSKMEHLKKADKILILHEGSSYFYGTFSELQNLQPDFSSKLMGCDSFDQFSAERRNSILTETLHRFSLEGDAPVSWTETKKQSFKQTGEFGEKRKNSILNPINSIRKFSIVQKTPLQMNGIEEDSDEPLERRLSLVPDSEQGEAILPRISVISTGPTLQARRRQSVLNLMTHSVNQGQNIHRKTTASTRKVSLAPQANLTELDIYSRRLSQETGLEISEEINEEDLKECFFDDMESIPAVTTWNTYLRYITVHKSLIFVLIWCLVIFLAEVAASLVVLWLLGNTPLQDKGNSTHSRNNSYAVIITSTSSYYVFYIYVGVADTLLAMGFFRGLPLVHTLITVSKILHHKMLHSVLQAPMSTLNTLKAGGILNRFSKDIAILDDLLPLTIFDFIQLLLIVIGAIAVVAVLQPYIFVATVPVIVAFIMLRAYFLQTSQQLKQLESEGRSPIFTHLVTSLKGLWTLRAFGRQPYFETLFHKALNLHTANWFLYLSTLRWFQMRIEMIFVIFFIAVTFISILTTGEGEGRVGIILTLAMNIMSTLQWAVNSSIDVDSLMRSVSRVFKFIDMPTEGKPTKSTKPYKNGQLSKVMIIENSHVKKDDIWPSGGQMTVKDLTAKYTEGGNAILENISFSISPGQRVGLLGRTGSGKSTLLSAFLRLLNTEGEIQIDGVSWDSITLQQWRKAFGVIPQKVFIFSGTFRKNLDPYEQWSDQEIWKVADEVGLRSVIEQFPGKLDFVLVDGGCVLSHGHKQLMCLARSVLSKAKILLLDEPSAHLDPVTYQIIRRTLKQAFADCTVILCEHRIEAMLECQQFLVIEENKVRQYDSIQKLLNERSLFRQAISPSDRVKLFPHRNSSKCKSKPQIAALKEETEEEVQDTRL

Broadly, the EC50 is the concentration that produces a half-maximal response. As to `COc1ncc(C2CCC2)cc1C1(C(=O)NS(=O)(=O)c2cccc3cnn(C)c23)CC1` [II-13], the EC50 reads like this: under setting [1], < 3 µM; under setting [2], < 3 µM. Besides, under “with co-corrector”, the “Maximum % activity (with co-corrector)” value is “+++ (≥350)”. Besides, the Emax (without co-corrector) was > 150%.

Turning to `CCOCC(C)(C)c1ccc(OC)c(C2(C(=O)NS(=O)(=O)c3cccc4ncccc34)CC2)c1` [II-110], the EC50 runs as follows: under setting [1], < 3 µM; under setting [2], < 3 µM. Moreover, the “Maximum % activity (with co-corrector)” value (with co-corrector) is listed as “+++ (≥350)”. Besides, the Emax (without co-corrector) was > 150%.

On to `Cc1ccc(O[C@H]2CCOC2)c(C2(C(=O)NS(=O)(=O)c3cccc4nc(C)ccc34)CC2)c1` [Example I-124, 1-(5-methyl-2-{[(3S)-oxolan-3-yl]oxy}phenyl)-N-(2-methylquinoline-5-sulfonyl)cyclopropane-1-carboxamide], for which the EC50 was < 3 µM under setting [1] and < 3 µM under setting [2]. Under “with co-corrector”, the “Maximum % activity (with co-corrector)” value is “+++ (≥350)”. The Emax (without co-corrector) is > 150%.

Consider `CC(C)Oc1ncc(N2CCCC2)cc1C1(C(=O)NS(=O)(=O)c2cccc3[nH]ccc23)CC1` [Example GI-64, N-(1H-indole-4-sulfonyl)-1-{2-[(propan-2-yl)oxy]-5-(pyrrolidin-1-yl)pyridin-3-yl}cyclopropane-1-carboxamide], for which the “Maximum % activity (with co-corrector)” value under setting [3] was “+++ (≥350)”. Moreover, the EC50 is < 3 µM under setting [4] and < 3 µM under setting [6]. Also, the Emax under setting [5] was > 150%.

For the compound `Cc1ccc(OC(C)C)c(C2(C(=O)NS(=O)(=O)c3cccc4nc(C)ccc34)CC2)c1` [Example I-78, 1-{5-methyl-2-[(propan-2-yl)oxy]phenyl}-N-(2-methylquinoline-5-sulfonyl)cyclopropane-1-carboxamide], the EC50 runs as follows: under setting [1], < 3 µM; under setting [2], < 3 µM. Moreover, where the note is “with co-corrector”, the “Maximum % activity (with co-corrector)” value is recorded as “+++ (≥350)”. The Emax (without co-corrector) was > 150%.

`CC(C)COc1ncc(C2CCC2)cc1C1(C(=O)NS(=O)(=O)c2cccc3ncccc23)CC1` [Example GI-51, 1-[5-cyclobutyl-2-(2-methylpropoxy)pyridin-3-yl]-N-(quinoline-5-sulfonyl)cyclopropane-1-carboxamide]: the “Maximum % activity (with co-corrector)” value under setting [3] was “+++ (≥350)”. For the same compound, the EC50 is < 3 µM under setting [4] and < 3 µM under setting [6]. Under setting [5], the Emax is > 150%.

Regarding `CCc1cnc(N2CCC(COC)CC2)c(C2(C(=O)NS(=O)(=O)c3cccc4[nH]ccc34)CC2)c1` [Example GI-120, 1-{5-ethyl-2-[4-(methoxymethyl)piperidin-1-yl]pyridin-3-yl}-N-(1H-indole-4-sulfonyl)cyclopropane-1-carboxamide], the “Maximum % activity (with co-corrector)” value under setting [3] is given as “+++ (≥350)”. Also, the EC50 reads like this: under setting [4], < 3 µM; under setting [6], 3 to 10 µM. Moreover, the Emax under setting [5] was > 150%.

With `Cc1ccc2c(S(=O)(=O)NC(=O)C3(c4cc(C5CC5)cnc4OC(C)C)CC3)cccc2n1` [Example GI-60, 1-{5-cyclopropyl-2-[(propan-2-yl)oxy]pyridin-3-yl}-N-(2-methylquinoline-5-sulfonyl)cyclopropane-1-carboxamide], under setting [3], the “Maximum % activity (with co-corrector)” value was “+++ (≥350)”. The EC50 was < 3 µM under setting [4] and < 3 µM under setting [6]. For the same compound, under setting [5], the Emax is > 150%.

For the compound `COCC1CCN(c2ncc(C3CCC3)cc2C2(C(=O)NS(=O)(=O)c3cccc4[nH]ccc34)CC2)CC1` [Example GI-118, 1-{5-cyclobutyl-2-[4-(methoxymethyl)piperidin-1-yl]pyridin-3-yl}-N-(1H-indole-4-sulfonyl)cyclopropane-1-carboxamide], the “Maximum % activity (with co-corrector)” value under setting [3] was “+++ (≥350)”. The EC50 was < 3 µM under setting [4] and < 3 µM under setting [6]. Further, the Emax under setting [5] was > 150%.

For `COc1ncc(C)cc1C1(C(=O)NS(=O)(=O)c2cccc3ccccc23)CC1` [Example I-15, 1-(2-methoxy-5-methylpyridin-3-yl)-N-(naphthalene-1-sulfonyl)cyclopropane-1-carboxamide], the EC50 under setting [1] lay in the range of 3 to 10 µM and the EC50 under setting [2] fell in the range of 3 to 10 µM. Further, the “Maximum % activity (with co-corrector)” value (with co-corrector) is “+++ (≥350)”. In addition, the Emax (without co-corrector) is > 150%.
